Our source for the Ki values is ChEMBL document CHEMBL3804802, “Novel sulfonamide bearing coumarin scaffolds as selective inhibitors of tumor associated carbonic anhydrase isoforms IX and XII” (Bioorg Med Chem, 2016).

Structures are written as SMILES.

This test addresses Carbonic anhydrase 9 (Homo sapiens, UniProt Q16790). Kind of test: Inhibition of human carbonic anhydrase 9 using saturated CO2 as substrate incubated for 10 mins prior to testing by stopped-flow CO2 hydrase assay.
As a reminder, the Ki is a dissociation constant, usually derived from enzyme kinetics or from competition with a known ligand. Read a high Ki as lower affinity. As for `NS(=O)(=O)c1ccc2c(c1)sc1nc(-c3cc4cc(Br)ccc4oc3=O)cn12`, the Ki was found to be 24.9 nM.

`NS(=O)(=O)c1ccc(Nc2nc(-c3cc4cc(Cl)ccc4oc3=O)cs2)cc1` yielded an inhibitory constant (Ki) of 25 nM.

`C/C(=N\Nc1ccc(S(N)(=O)=O)cc1)c1cc2cc(Cl)ccc2oc1=O` registered a Ki of 2.35 nM.

`NS(=O)(=O)c1ccc(-n2cc(/C=N\Nc3nc(-c4cc5cc(Br)ccc5oc4=O)cs3)c(-c3ccccc3)n2)cc1` showed a Ki of 21.6 nM.

Compound `NS(=O)(=O)c1ccc(-n2cc(/C=N\Nc3nc(-c4cc5ccccc5oc4=O)cs3)c(-c3ccc(F)cc3)n2)cc1` gave a Ki of 2.28 nM.

The compound `COc1ccc(-c2nn(-c3ccc(S(N)(=O)=O)cc3)cc2/C=N\Nc2nc(-c3cc4cc(Cl)ccc4oc3=O)cs2)cc1` registered a Ki of 20.4 nM.

`NS(=O)(=O)c1ccc(-n2cc(/C=N\Nc3nc(-c4cc5cc(Br)ccc5oc4=O)cs3)c(-c3ccc(Cl)cc3)n2)cc1` displayed a Ki of 23.1 nM.

Compound `Cc1ccc(-c2nn(-c3ccc(S(N)(=O)=O)cc3)cc2/C=N\Nc2nc(-c3cc4cc(Br)ccc4oc3=O)cs2)cc1` yielded a Ki of 26 nM.

For `C/C(=N\Nc1ccc(S(N)(=O)=O)cc1)c1cc2cc(Br)ccc2oc1=O`, the affinity corresponds to a Ki of 23.6 nM.

`NS(=O)(=O)c1ccc(-n2cc(/C=N\Nc3nc(-c4cc5ccccc5oc4=O)cs3)c(-c3ccc(Cl)cc3)n2)cc1` gave a Ki of 2.32 nM.

With `NS(=O)(=O)c1ccc(-n2cc(/C=N\Nc3nc(-c4cc5cc(Cl)ccc5oc4=O)cs3)c(-c3ccccc3)n2)cc1`, the inhibitory constant (Ki) was 28.3 nM.

Consider `NS(=O)(=O)c1ccc2c(c1)sc1nc(-c3cc4ccccc4oc3=O)cn12`, for which the affinity corresponds to a Ki of 43.6 nM.

On to `COc1ccc(-c2nn(-c3ccc(S(N)(=O)=O)cc3)cc2/C=N\Nc2nc(-c3cc4ccccc4oc3=O)cs2)cc1`, for which affinity was put at a Ki of 21.6 nM.

On to `C/C(=N\Nc1ccc(S(N)(=O)=O)cc1)c1cc2ccccc2oc1=O`, for which the Ki amounted to 58.6 nM.

The compound `NS(=O)(=O)c1ccc(-n2cc(/C=N\Nc3nc(-c4cc5ccccc5oc4=O)cs3)c(-c3ccccc3)n2)cc1` returned a Ki of 19.7 nM.

On to `Cc1ccc(-c2nn(-c3ccc(S(N)(=O)=O)cc3)cc2/C=N\Nc2nc(-c3cc4ccccc4oc3=O)cs2)cc1`, for which the Ki worked out at 28.6 nM.

Consider `NS(=O)(=O)c1ccc(-n2cc(/C=N\Nc3nc(-c4cc5cc(Br)ccc5oc4=O)cs3)c(-c3ccc(F)cc3)n2)cc1`, for which the Ki was found to be 26.5 nM.

In the case of `NS(=O)(=O)c1ccc2c(c1)sc1nc(-c3cc4cc(Cl)ccc4oc3=O)cn12`, affinity was put at a Ki of 11.4 nM.

Regarding `NS(=O)(=O)c1ccc(Nc2nc(-c3cc4cc(Br)ccc4oc3=O)cs2)cc1`, the affinity corresponds to a Ki of 23.6 nM.

`NS(=O)(=O)c1ccc(-n2cc(/C=N\Nc3nc(-c4cc5cc(Cl)ccc5oc4=O)cs3)c(-c3ccc(Cl)cc3)n2)cc1` yielded a Ki of 28.1 nM.

`COc1ccc(-c2nn(-c3ccc(S(N)(=O)=O)cc3)cc2/C=N\Nc2nc(-c3cc4cc(Br)ccc4oc3=O)cs2)cc1` registered a Ki of 20.1 nM.

The compound `Cc1ccc(-c2nn(-c3ccc(S(N)(=O)=O)cc3)cc2/C=N\Nc2nc(-c3cc4cc(Cl)ccc4oc3=O)cs2)cc1` had a Ki of 24.5 nM.

Regarding `NS(=O)(=O)c1ccc(Nc2nc(-c3cc4ccccc4oc3=O)cs2)cc1`, the affinity, expressed as Ki, was 23.8 nM.

As to `NS(=O)(=O)c1ccc(-n2cc(/C=N\Nc3nc(-c4cc5cc(Cl)ccc5oc4=O)cs3)c(-c3ccc(F)cc3)n2)cc1`, affinity was put at a Ki of 2.54 nM.
